Laboratory results from US20090054326A1 (NASTECH PHARMACEUTICAL COMPANY INC., priority 2005, published 2009).

Experiments:
aminopeptidases = settings: cited from earlier work
[1] = tested on: normal, human-derived tracheal/bronchial epithelial cells (EpiAirway Tissue Model); test: Transepithelial electrical resistance (TER) in EpiAirway tissue model; type: cell-based; settings: after one hour exposure at 37° C.; Examples 1-4
Experimental: Samples were evaluated in an in vitro tissue model. […] Inserts were feed for each day of recovery.
TER measurements were accomplished using the Endohm-12 Tissue Resistance Measurement Chamber connected to the EVOM Epithelial Voltohmmeter (World Precision Instruments, Sarasota, Fla.) with the electrode leads. The electrodes and a tissue culture blank insert were equilibrated for at least 20 minutes in MatTek medium with the power off prior to check calibration. The background resistance was measured with 1.5 ml Media in the Endohm tissue chamber and 300 μl Media in the blank insert. The top electrode was adjusted so that it was close to, but not making contact with, the top surface of the insert membrane. Background resistance of the blank insert was about 5-20 ohms. For each TER determination, 300 μl of MatTek medium was added to the insert followed by placement in the Endom chamber. Resistance was expressed as (resistance measured−blank)×0.6 cm^2.

| Compound | more effective in enzyme inhibition than bestatin (aminopeptidases; relative to bestatin) | more effective in enzyme inhibition than puromycin (aminopeptidases; relative to puromycin) | change in TER [1] |
| --- | --- | --- | --- |
| CC(C)CC(N)B(O)O (stereo not drawn) [boro-leucine] | more than 100 times | more than 1000 times |  |
| Triton X |  |  | essentially a complete reduction in TER |
